# Measured values from publication PMC10492809, “A Bischler-Napieralski and homo-Mannich sequence enables diversified syntheses of sarpagine alkaloids and analogues” (Nature Communications, 2023).
# Several values for one entry are separate records, joined by “and”; a condition that tells them apart may be missing. Equal entries are not always repeated. Where two headings read alike, the source gives them in different places.
# Key:
# Type in all cases: cell-based
# MDA-MB-231 cells = assay: Cell death manner assay (MTT, co-incubation with cell death inhibitors); conditions: Fer-1 / NAC experiment; 15ai 10 μM, Fer-1 10 μM, NAC 5 mM, 72 h; single replicates
# Description: [The source words this procedure for another cell line and reports this cell line under the same test.] To investigate the mechanism of 15ai in cancer cell proliferation inhibition, the manners of cell death were analyzed. The cell apoptosis inhibitor Z-VAD-FMK (Z-VAD), cell necrosis inhibitor Necrostatin-1 (Necro-1), ferroptosis inhibitor Ferrostatin-1 (Fer-1), and ROS inhibitor N-acetylcysteine (NAC) were purchased and stored at −20 °C. A375 cells were seeded with a density of 5000 cells/100 µL/well into 96 well plates. After 12 h, 15ai was added at different concentrations. Following that 10 µM Z-VAD, 10 µM Nerco-1, 10 µM Fer-1, and 5 mM NAC were added and co-incubated with 15ai, respectively, for 72 h. Then, 20 µL MTT solution (5 mg/mL) was added and incubated at 37 °C for an additional 4 h. Then, the supernatant was discarded, and 200 μL DMSO was added to dissolve the precipitate. After 15 min, the absorbance (OD490) was read on a microplate reader (SpectraMax i3x, Austria). In all experiments, three replicate wells were used for each drug concentration. Each assay was performed at least three times.
# HCT 116 = assay: MTT cell viability assay, HCT 116
# Description: (§1) All cell lines were cultured at 37 °C with 5% CO2 in a humidified incubator. HeLa cells were grown in MEM (Gibco) supplemented with 10% fetal bovine serum (FBS, Hyclone) and 1% penicillin/streptomycin (Gibco). MIA PaCa-2, MDA-MB-231, A549, MCF-7, A375 and BEAS-2B cells were grown in DMEM (Gibco) supplemented with 10% FBS and 1% penicillin/streptomycin. CT26, and HCT116 cells were grown in RPMI-1640 supplemented with 10% FBS and 1% penicillin/streptomycin. All cell lines were purchased from the National Collection of Authenticated Cell Cultures (China).
# (§2) The antiproliferative activities of the prepared compounds against tested cell lines were evaluated using a standard (MTT)-based colorimetric assay. Cells were plated at a density of 3000 cells/well in 96-well plates and allowed to adhere overnight. Then cells were treated with varying concentrations of synthesized compounds for 72 h. At the end of treatment, 20 μL of thiazolyl blue tetrazolium bromide (MTT) solution (5 mg/mL) was added to each well. Cells were incubated for an additional 4 h at 37 °C and then the medium was removed and replaced with 200 μL of DMSO. The absorbance (OD490) was read on a microplate reader (SpectraMax i3x, Molecular Devices, US). In all experiments, three replicate wells were used for each drug concentration. Each assay was performed at least three times. The IC50 values were calculated by GraphPad Prism 9, which were the mean values derived from three independent experiments.
# MDA-MB-231 = assay: MTT cell viability assay, MDA-MB-231
# Description: as §1, §2
# A549 = assay: MTT cell viability assay, A549
# Description: as §1, §2
# A375 = assay: MTT cell viability assay, A375
# Description: as §1, §2
# cancer cell lines = assay: In vitro cancer cell assays (antiproliferation, cell line not given); conditions: result in words
# Description: as §1, §2
# MIA PaCa-2 = assay: MTT cell viability assay, MIA PaCa-2
# Description: as §1, §2
# MCF-7 = assay: MTT cell viability assay, MCF-7
# Description: as §1, §2
# CT26 = assay: MTT cell viability assay, CT26
# Description: as §1, §2
# [1] = MTT cytotoxicity towards normal cells, BEAS-2B; conditions: human
# Description: as §1, §2
# Hela = assay: MTT cell viability assay, Hela
# Description: as §1, §2
compound,measurement,setting,value
"CC(=O)N[C@@H](CS)C(=O)O [NAC, N-acetylcysteine, reference compound]",Percentage of viability,MDA-MB-231 cells,108.212% and 96.8182% and 102.046%
"CC=C1CN2C3CC1C(C=O)C2Cc1c3n(C)c2ccccc12 (stereo not shown) [Na-methylvellosimine (5), Na-methylvellosimine]",IC50,"HCT 116; Homo sapiens, HCT-116, 72 h, MTT, 72 h, mean of at least three independent experiments, read-out: IC50 HCT 116",23.6 µM
same,IC50,"HCT 116; Homo sapiens, HCT-116, source data sheet, single values of three experiments, read-out: MTT IC50 HCT-116",25.2 µM
same,IC50,"HCT 116; source data sheet, single values of three experiments, read-out: MTT IC50 HCT-116",22.5 µM and 23 µM
same,IC50,"MDA-MB-231; Homo sapiens, MDA-MB-231, 72 h, MTT, 72 h, mean of at least three independent experiments, read-out: IC50 MDA-MB-231",20.7 µM
same,IC50,"MDA-MB-231; Homo sapiens, MDA-MB-231, source data sheet, single values of three experiments, read-out: MTT IC50 MDA-MB-231",20.4 µM
same,IC50,"MDA-MB-231; source data sheet, single values of three experiments, read-out: MTT IC50 MDA-MB-231",22.8 µM and 18.8 µM
same,IC50,"A549; Homo sapiens, A549, 72 h, MTT, 72 h, mean of at least three independent experiments, read-out: IC50 A549",20.9 µM
same,IC50,"A549; Homo sapiens, A549, source data sheet, single values of three experiments, read-out: MTT IC50 A549",23.1 µM
same,IC50,"A549; source data sheet, single values of three experiments, read-out: MTT IC50 A549",19 µM and 20.4 µM
same,IC50,"A375; Homo sapiens, A-375, 72 h, MTT, 72 h, mean of at least three independent experiments, read-out: IC50 A375",27.6 µM
same,IC50,"A375; Homo sapiens, A-375, source data sheet, single values of three experiments, read-out: MTT IC50 A375",29.2 µM
same,IC50,"A375; source data sheet, single values of three experiments, read-out: MTT IC50 A375",25.9 µM and 27.8 µM
same,antiproliferation activity in the in vitro cancer cell assays,cancer cell lines,moderate antiproliferation activity
same,IC50,"MIA PaCa-2; Homo sapiens, MIA PaCa-2, 72 h, MTT, 72 h, mean of at least three independent experiments, read-out: IC50 MIA PaCa-2",26.7 µM
same,IC50,"MIA PaCa-2; Homo sapiens, MIA PaCa-2, source data sheet, single values of three experiments, read-out: MTT IC50 MIA PaCa-2",29.2 µM
same,IC50,"MIA PaCa-2; source data sheet, single values of three experiments, read-out: MTT IC50 MIA PaCa-2",23.5 µM and 27.3 µM
same,IC50,"MCF-7; Homo sapiens, MCF7, 72 h, MTT, 72 h, mean of at least three independent experiments, read-out: IC50 MCF-7",41.8 µM
same,IC50,"MCF-7; Homo sapiens, MCF7, source data sheet, single values of three experiments, read-out: MTT IC50 MCF-7",44.7 µM
same,IC50,"MCF-7; source data sheet, single values of three experiments, read-out: MTT IC50 MCF-7",40.8 µM and 39.9 µM
same,IC50,"CT26; Mus musculus, CT26, 72 h, MTT, 72 h, mean of at least three independent experiments, read-out: IC50 CT26",21.4 µM
same,IC50,"CT26; Mus musculus, CT26, source data sheet, single values of three experiments, read-out: MTT IC50 CT-26",19.6 µM
same,IC50,"CT26; source data sheet, single values of three experiments, read-out: MTT IC50 CT-26",20.7 µM and 23.8 µM
same,IC50 at 72 h,"[1]; BEAS-2B lung epithelial cells (normal cells), source data sheet, single values of three experiments",> 100 µM
same,CC50 at 72 h,"[1]; BEAS-2B lung epithelial cells, MTT, 72 h, cytotoxicity towards normal cells, mean of at least three independent experiments",> 100 µM
same,IC50,"Hela; Homo sapiens, HeLa, 72 h, MTT, 72 h, mean of at least three independent experiments, read-out: IC50 Hela",22.3 µM
same,IC50,"Hela; Homo sapiens, HeLa, source data sheet, single values of three experiments, read-out: MTT IC50 Hela",24.5 µM
same,IC50,"Hela; source data sheet, single values of three experiments, read-out: MTT IC50 Hela",21.9 µM and 20.4 µM
